Reference: US20100029732A1, “Combinations of Beta-2-Adrenoceptor Agonistic Benzothiazolone” (ASTRAZENECA AB, priority 2007, published 2010)
Where a name gives a salt, the structure may show the parent alone.

What was measured:
[1] = system: guinea pig trachea contracted with methacholine; experiment: Bronchodilator activity in guinea pig isolated tracheal ring preparation: onset measurements; conditions: rings contracted with methacholine 1 μM, mean±s.e.mean, n=4
Protocol: Guinea pigs (300-500 g) were killed by cervical dislocation and the trachea was isolated. The trachea was cut into segments 2-3 cartilage rings in width and suspended in 10 ml organ baths in modified Krebs' solution (mM; NaCl, 90; NaHCO3, 45; KCl, 5; MgSO4.7H2O, 0.5; Na2HPO4.2H2O, 1; CaCl2, 2.25; glucose, 10; pH 7.4) gassed with 5% CO2, 95% O2 at 37° C.). The tracheal rings were attached to an isometric force transducer for the measurement of isometric tension. The tissues were washed and a force of 1 g was applied to each tissue. The rings were contracted with methacholine (1 μM). Once the contraction had reached a plateau, vehicle (0.01% DMSO in distilled H2O), compound A (3 nM), roflumilast (1 μM) or a combination of compound A (3 nM) and roflumilast (1 μM) was added and the tissue left until the response had reached a plateau. Data were collected using the Chart 4 software (ADInstruments, Charlgrove, UK). The time to 90% of the maximum effect of the bronchodilator (onset time) was measured and expressed in min (mean±s.e.mean).

Adrenergic β2 = biological target: T1, Adrenergic β2 (Homo sapiens, UniProt P07550); experiment: Adrenergic β2 mediated cAMP production in H292 cells (AlphaScreen); assay type: cell-based
T1 construct: Adherent H292 cells were removed from tissue culture flasks; endogenous in cells; host or cells: H292 cells
Protocol: Adrenergic β2 Mediated cAMP Production
H292 cells were grown in 225 cm2 flasks incubator at 37° C., 5% CO2 in RPMI medium containing, 10% (v/v) FBS (foetal bovine serum) and 2 mM L-glutamine.
Adherent H292 cells were removed from tissue culture flasks by treatment with Accutase™ cell detachment solution for 15 minutes. Flasks were incubated for 15 minutes in a humidified incubator at 37° C., 5% CO2. Detached cells were re-suspended in RPMI media (containing 10% (v/v) FBS and […] L-glutamine) at 0.05×10^6 cells per 1 mL. 5000 cells in 100 μL were added to each well of a tissue-culture-treated 96-well plate and the cells incubated overnight in a humidified incubator at 37° C., 5% CO2. The culture media was removed and cells were washed twice with 100 μL assay buffer and replaced with 50 μL assay buffer (HBSS solution containing 10 mM HEPES pH7.4 and 5 mM glucose). […]
The concentration of cAMP (cyclic adenosine monophosphate) in the cell lysate was determined using AlphaScreen™ methodology. […] The AlphaScreen™ signal was measured using an EnVision spectrophotometer (Perkin-Elmer Inc.) with the recommended manufacturer's settings. cAMP concentrations were determined by reference to a calibration curve determined in the same experiment using standard cAMP concentrations. […] Intrinsic Activity was expressed as a fraction relative to the maximum activity determined for formoterol in each experiment. […]

[2] = system: methacholine-induced bronchoconstriction; experiment: Lung function in anaesthetised guinea-pigs, methacholine challenge; assay type: in vivo, Dunkin-Hartley guinea pig; conditions: tiotropium bromide 0.03 μg/kg intratracheal 2 hours prior; after 5 μg/kg i.v. methacholine
Protocol: Male Dunkin-Hartley guinea pigs (300-600 g) were weighed and dosed with vehicle (0.05M phosphate, 0.1% Tween 80, 0.6% saline, pH 6) or compound via the intratracheal route under recoverable gaseous anaesthesia (5% halothane in oxygen). Animals were dosed with compound or vehicle two hours prior to the administration of histamine or methacholine.
Guinea pigs were anaesthetised with pentobarbitone (1 mL/kg of 60 mg/mL solution i.p.) approximately 30 minutes prior to the first bronchoconstrictor administration. The trachea was cannulated and the animal ventilated using a constant volume respiratory pump (Harvard Rodent Ventilator model 683) at a rate of 60 breath/min and a tidal volume of 5 ml/lkg. […]
The animals were transferred to a Flexivent System (SCIREQ, Montreal, Canada) in order to measure airway resistance. […] Respiratory resistance was measured using the Flexivent “snapshot” facility (1 second duration, 1 Hz frequency). […] After each administration of bronchoconstrictor the peak resistance value was recorded. […] Percentage bronchoprotection produced by a compound was calculated at each dose of brochoconstrictor as follows:
Where % change Rveh is the mean of the maximum percentage change in airway resistance in the vehicle treated group. The results reported were measured after 5 μg/kg histamine or methacholine and were expressed as percentage bronchoprotection (mean±s.e.mean).

[3] = system: LPS-induced intra-alveolar neutrophilia; experiment: Intra-alveolar neutrophil migration after intratracheal LPS challenge in the CRL:CD rat; assay type: in vivo; conditions: Compound W 3 ng/kg intratracheal 30 min prior to LPS 10 μg/kg; BAL 4 hr; mean±s.e.mean
Protocol: LPS challenge in CRL:CD rats causes an influx of neutrophils into the lungs. Under recoverable gaseous anaesthesia (5% isoflourane in oxygen), rats were dosed via the intatracheal route with vehicle (0.05M phosphate, 0.1% Tween 80, 0.6% saline, pH 6), or compound 30 min before challenge with an intratracheal dose of 10 μg/kg LPS.
The rats (250-400 g) were euthanized 4 hr after LPS challenge with 1 mL pentobarbitone sodium. A tracheotomy was performed and a calinula inserted. The airway was then lavaged using 3 mL Isoton at room temperature. The Isoton (BeckmanCoulter, High Wycombe, UK) was left in the airway for 10 seconds before being removed. The bronchio-alveolar lavage (BAL) fluid containing inflammatory cells was placed into a 15 mL centrifuge tube and kept on ice. This process was repeated three times. An aliquot of BAL fluid was removed and the inflammatory cells were counted on Sysmex (Sysmex UK, Milton Keynes). Neutrophils were expressed in millions/animal (mean±s.e.mean).

T1 sequence (P07550 whole entry): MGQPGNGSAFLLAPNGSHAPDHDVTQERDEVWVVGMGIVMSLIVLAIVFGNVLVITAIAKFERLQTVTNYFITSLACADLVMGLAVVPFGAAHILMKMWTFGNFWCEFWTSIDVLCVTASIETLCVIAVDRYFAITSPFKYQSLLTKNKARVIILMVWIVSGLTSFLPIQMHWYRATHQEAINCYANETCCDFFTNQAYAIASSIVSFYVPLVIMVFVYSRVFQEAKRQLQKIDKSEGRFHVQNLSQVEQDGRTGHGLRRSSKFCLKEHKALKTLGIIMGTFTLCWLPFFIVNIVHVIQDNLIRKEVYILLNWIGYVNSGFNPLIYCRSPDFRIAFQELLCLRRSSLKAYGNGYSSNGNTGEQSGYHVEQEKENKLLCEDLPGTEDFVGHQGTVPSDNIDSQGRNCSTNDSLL

For `O=C(Nc1c(Cl)cncc1Cl)c1ccc(OC(F)F)c(OCC2CC2)c1` [roflumilast, 3-(cyclopropylmethoxy)-N-(3,5-dichloro-4-pyridinyl)-4-(difluoromethoxy)benzamide, reference compound], the “onset time (time to 90% of the maximum effect of the bronchodilator)” value ([1]; roflumilast 1 μM) was 26 ± 1.4 min.

`CCN(CC)CCN(CCNCCc1ccc(O)c2[nH]c(=O)sc12)C(=O)CCOCCc1cccc2ccccc12` [N-[2-(Diethylamino)ethyl]-N-(2-{[2-(4-hydroxy-2-oxo-2,3-dihydro-1,3-benzothiazol-7-yl)ethyl]amino}ethyl)-3-[2-(1-naphthyl)ethoxy]propanamide] was tested, and the “selectivity of β2 adrenoceptor agonism” value (Adrenergic β2; over adrenergic α1D, adrenergic β1 and dopamine D2 activities) was at least 10 fold.

For `C[N+]1(C)[C@@H]2C[C@@H](OC(=O)C(O)(c3cccs3)c3cccs3)C[C@H]1[C@@H]1O[C@@H]12` [tiotropium bromide, Tiotropium bromide], the “inhibition of methacholine-induced bronchoconstriction” value [2] was 13%.

For `CCN(CC)CCN(CCNCCc1ccc(O)c2[nH]c(=O)sc12)C(=O)CCOCCc1cccc2ccccc12` [Compound A, N-[2-(Diethylamino)ethyl]-N-(2-{[2-(4-hydroxy-2-oxo-2,3-dihydro-1,3-benzothiazol-7-yl)ethyl]amino}ethyl)-3-[2-(1-naphthyl)ethoxy]propanamide dihydrobromide], the “β2 Int Act” value (Adrenergic β2; Intrinsic Activity as fraction relative to the maximum activity of formoterol) was 0.8 and the “onset time (time to 90% of the maximum effect of the bronchodilator)” value ([1]; compound A 3 nM) was 16 ± 3.0 min.

With `CNC(=O)c1cc(Cl)c(OC(C)(C)C(=O)O)cc1OC[C@@H](O)CN1CCC2(CC1)Cc1cc(Cl)ccc1O2` [Compound W, 2-{2-Chloro-5-{[(2S)-3-(5-chloro-1′H,3H-spiro[1-benzofuran-2,4′-piperidin]-1′-yl)-2-hydroxypropyl]oxy}-4-[(methylamino)carbonyl]phenoxy}-2-methylpropanoic acid] the BAL neutrophils [3] was 6.3±1.1 million/animal.
